What follows are molecules tested against recombinant human BACE-1 protein (Homo sapiens (Human), UniProt P56817) (assay: Measurement of Inhibition of β-Secretase Activity). Details: not given.
Chain of recombinant human BACE-1 protein (P56817 46-501): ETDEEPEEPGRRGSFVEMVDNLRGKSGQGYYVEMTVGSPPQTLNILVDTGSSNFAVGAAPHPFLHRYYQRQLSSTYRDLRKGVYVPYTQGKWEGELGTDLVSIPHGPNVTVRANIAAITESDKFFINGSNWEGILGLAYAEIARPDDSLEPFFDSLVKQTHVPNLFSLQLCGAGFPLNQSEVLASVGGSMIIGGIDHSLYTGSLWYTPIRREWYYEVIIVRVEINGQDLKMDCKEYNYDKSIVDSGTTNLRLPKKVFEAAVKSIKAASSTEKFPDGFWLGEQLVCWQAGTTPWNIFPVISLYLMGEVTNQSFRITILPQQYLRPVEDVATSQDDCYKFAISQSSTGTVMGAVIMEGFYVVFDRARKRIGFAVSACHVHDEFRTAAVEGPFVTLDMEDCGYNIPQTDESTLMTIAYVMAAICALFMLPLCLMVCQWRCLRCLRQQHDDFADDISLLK
Type: biochemical
Method: Zero point five μL of the test compounds (dissolved in N,N′-dimethylsulfoxide) were incubated with 48.5 μL of the fluorescence-quenched peptide substrate solution (Biotin-XSEVNLDAEFRHDSGC-Eu:X=ε-amino-n-capronic acid, Eu=Europium cryptate) and 1 μL of recombinant human BACE-1 protein (R&D systems) for 3 h at 30° C. in the 96 well half-area plate (black color plate, Costar). The substrate peptide was synthesized by reacting with Biotin-XSEVNLDAEFRHDSGC (Peptide Institute) and Cryptate TBPCOOH mono SMP (CIS bio international). […] The enzymatic reaction was performed in sodium acetate buffer (50 mM sodium acetate (pH5.0), 0.008% Triton X-100). After the reaction, a 50 μL of 8.0 μg/mL Streptavidin-XL665 (CIS bio international) dissolved in phosphate buffer (150 mM K2HPO4—KH2PO4 (pH 7.0), 0.008% Triton X-100, 0.8 M KF) was add to each well and incubated for 1 h at 30° C.
Molecule `CC1(c2cccc(COC(=O)Cc3ccccc3)c2)CCSC(N)=N1` (stereo not drawn) [Compound 1140] has an IC50 of under 100 µM.

Same assay, conditions: fluorescence-quenched peptide substrate 18 nM, BACE-1 7.4 nM, 3 h at 30° C., pH5.0; read-out: IC50 value
In the case of `CC1(c2cccc(OCC(=O)Nc3ccc4cnccc4c3)c2)CCSC(N)=N1` (stereo not drawn) [Compound 454], the IC50 is reported as under 100 µM. For `Cc1noc(C)c1C(=O)Nc1cccc(C2(C)CCSC(N)=N2)c1` (stereo not drawn) [Compound 491], the IC50 was under 100 µM. `CC1(c2cccc(NC(=O)c3cnc(N4CCOCC4)cn3)c2)CCSC(N)=N1` (stereo not drawn) [Compound 1264] showed an IC50 of under 100 µM. Work on `CC1(c2cc(NC(=O)c3cocn3)ccc2F)CCSC(N)=N1` (stereo not drawn) [Compound 97] yielded an IC50 of under 100 µM. Work on `CC1(c2cccc(OCCc3ccccc3)c2)CCSC(N)=N1` (stereo not drawn) [Compound 833] yielded an IC50 of under 100 µM. For `CC1(c2cccc(NC(=O)CCNC(=O)c3ccc(Cl)cc3)c2)CCSC(N)=N1` (stereo not drawn) [Compound 613], the IC50 was under 100 µM. With `CC1(c2ccc(F)c(NC(=O)c3ccccc3C(F)(F)F)c2)CCSC(N)=N1` (stereo not drawn) [Compound 345] the IC50 was under 100 µM. With `CCCNc1ccc(C(=O)Nc2cccc(C3(C)CCSC(N)=N3)c2)nc1` (stereo not drawn) [Compound 114] the IC50 was under 100 µM. In the case of `COc1ccc(NC(=O)NCc2cccc(C3(C)CCSC(N)=N3)c2)cc1` (stereo not drawn) [Compound 159], the IC50 is reported as under 100 µM. Work on `CC1(c2cccc(NC(=O)c3ccc([N+](=O)[O-])cn3)c2)CCSC(N)=N1` (stereo not drawn) [Compound 730] yielded an IC50 of under 100 µM. `CC1(c2cccc(NC(=O)c3ncc(C(F)(F)F)cc3Cl)c2)CCSC(N)=N1` (stereo not drawn) [Compound 482] gave an IC50 of under 100 µM. For `CC1(c2cccc(NC(=O)c3ncc(Cl)cc3Cl)c2)CCSC(N)=N1` (stereo not drawn) [Compound 646], the IC50 was under 100 µM. Molecule `CCOC(=O)C#Cc1cccc(C2(C)CCSC(N)=N2)c1` (stereo not drawn) [Compound 933] has an IC50 of under 100 µM. `CC1(c2cc(Br)cc(NC(=O)c3ccco3)c2)CCSC(N)=N1` (stereo not drawn) [Compound 370] was tested, and the IC50 was under 100 µM. For `CC1(c2cccc(NC(=O)c3ccc(N)cn3)c2)CCSC(N)=N1` (stereo not drawn) [Compound 279], the IC50 was under 100 µM. Molecule `CC1(c2cccc(NC(=O)c3c(O)cccc3F)c2)CCSC(N)=N1` (stereo not drawn) [Compound 575] has an IC50 of under 100 µM. Molecule `COC(=O)c1cccc(C(=O)Nc2cccc(C3(C)CCSC(N)=N3)c2)c1` (stereo not drawn) [Compound 346] has an IC50 of under 100 µM. `CC1(c2cc(NC(=O)c3ccc(F)cc3)cc(S(C)(=O)=O)c2)CCSC(N)=N1` (stereo not drawn) [Compound 330] gave an IC50 of under 100 µM. In the case of `Cc1cc(C(=O)Nc2cccc(C3(C)CCSC(N)=N3)c2)c(C)o1` (stereo not drawn) [Compound 578], the IC50 is reported as under 100 µM. In the case of `CC1(c2cccc(NC(=O)c3ccc(C#N)cc3F)c2)CCSC(N)=N1` (stereo not drawn) [Compound 517], the IC50 is reported as under 100 µM. With `CC1(c2cccc(NC(=O)c3ccc(Cl)nc3Cl)c2)CCSC(N)=N1` (stereo not drawn) [Compound 865] the IC50 was under 100 µM. For `COc1ccc(NC(=O)C(F)(F)Oc2cccc(C3(C)CCSC(N)=N3)c2)cc1` (stereo not drawn) [Compound 944], the IC50 was under 100 µM. `CC1(c2cccc(NC(=O)c3ccc(F)c(Br)c3)c2)CCSC(N)=N1` (stereo not drawn) [Compound 215] showed an IC50 of under 100 µM. `CC1(c2ccc(F)c(NC(=O)c3ccc(Cl)nc3)c2)CCSC(N)=N1` (stereo not drawn) [Compound 527] showed an IC50 of under 100 µM. With `CC1(c2cccc(OCC(=O)Nc3ccc(Cl)c4ccccc34)c2)CCSC(N)=N1` (stereo not drawn) [Compound 723] the IC50 was under 100 µM. `CC1(c2cccc(NC(=O)c3ccc(OC(F)F)cc3)c2)CCSC(N)=N1` (stereo not drawn) [Compound 905] was tested, and the IC50 was under 100 µM. `CC(C)Nc1cnc(C(=O)Nc2cccc(C3(C)CCSC(N)=N3)c2)cn1` (stereo not drawn) [Compound 157] was tested, and the IC50 was under 100 µM. Molecule `COc1ccc(C(=O)Nc2cccc(C3(C)CCSC(N)=N3)c2)cc1` (stereo not drawn) [Compound 300] has an IC50 of under 100 µM. In the case of `CC1(c2cc(NC(=O)c3ccc(Cl)cc3Cl)ccc2F)CCSC(N)=N1` (stereo not drawn) [Compound 544], the IC50 is reported as under 100 µM. `CC1(c2cccc(Nc3nc4ccccc4[nH]3)c2)CCSC(N)=N1` (stereo not drawn) [Compound 681] gave an IC50 of under 100 µM. In the case of `CC1(c2cccc(NC(=O)c3cc(Cl)cc(Cl)c3)c2)CCSC(N)=N1` (stereo not drawn) [Compound 775], the IC50 is reported as under 100 µM. Work on `CC1(c2cccc(NC(=O)c3ccc(Cl)cc3Cl)c2)CCSC(N)=N1` (stereo not drawn) [Compound 182] yielded an IC50 of under 100 µM. Work on `Cc1cc(C(=O)Nc2cc(C3(C)CCSC(N)=N3)ccc2F)c(C)o1` (stereo not drawn) [Compound 607] yielded an IC50 of under 100 µM. `CC1(c2ccc(C(=O)NCc3cccc(Cl)c3)cc2)CCSC(N)=N1` (stereo not drawn) [Compound 363] was tested, and the IC50 was under 100 µM. For `CC1(c2cccc(CCC(=O)Nc3ccc(Cl)cc3)c2)CCSC(N)=N1` (stereo not drawn) [Compound 341], the IC50 was under 100 µM. For `CC1(c2cccc(NC(=O)c3ccccc3C#N)c2)CCSC(N)=N1` (stereo not drawn) [Compound 711], the IC50 was under 100 µM. `CC1(c2cccc(NC(=O)c3cccc4c3OCCO4)c2)CCSC(N)=N1` (stereo not drawn) [Compound 207] was tested, and the IC50 was under 100 µM. Work on `CC1(c2cccc(NC(=O)c3ccc(Cl)c(Cl)c3)c2)CCSC(N)=N1` (stereo not drawn) [Compound 369] yielded an IC50 of under 100 µM. With `CC1(c2cccc(OCC(=O)Nc3nc4ccccc4s3)c2)CCSC(N)=N1` (stereo not drawn) [Compound 922] the IC50 was under 100 µM. With `CC1(c2cccc(OCC(=O)Nc3ccc4c(c3)OCCO4)c2)CCSC(N)=N1` (stereo not drawn) [Compound 509] the IC50 was under 100 µM. With `COc1cnc(C(=O)Nc2cccc(C3(C)CCSC(N)=N3)c2)c(N(C)C)n1` (stereo not drawn) [Compound 214] the IC50 was under 100 µM. For `COc1ccc(CC(=O)NCc2cccc(C3(C)CCSC(N)=N3)c2)cc1` (stereo not drawn) [Compound 910], the IC50 was under 100 µM. `COc1ccc(NC(=O)CCc2cccc(C3(C)CCSC(N)=N3)c2)cc1` (stereo not drawn) [Compound 1039] gave an IC50 of under 100 µM. Work on `CC1(c2cccc(NC(=O)c3cccc(Br)c3)c2)CCSC(N)=N1` (stereo not drawn) [Compound 273] yielded an IC50 of under 100 µM. With `CC1(c2cc(NC(=S)c3ccc(Cl)cc3)cc(S(C)(=O)=O)c2)CCSC(N)=N1` (stereo not drawn) [Compound 30] the IC50 was under 100 µM. In the case of `COc1cnc(C(=O)Nc2cccc(C3(C)CCSC(N)=N3)c2)c(N)n1` (stereo not drawn) [Compound 906], the IC50 is reported as under 100 µM. Work on `Cc1ccc(C(=O)Nc2cccc(C3(C)CCSC(N)=N3)c2)cc1` (stereo not drawn) [Compound 550] yielded an IC50 of under 100 µM. In the case of `Cc1ccc(F)c(C(=O)Nc2cccc(C3(C)CCSC(N)=N3)c2)c1` (stereo not drawn) [Compound 373], the IC50 is reported as under 100 µM. Work on `CCOc1ccc(NC(=O)COc2cccc(C3(C)CCSC(N)=N3)c2)cc1` (stereo not drawn) [Compound 809] yielded an IC50 of under 100 µM. Molecule `CC1(c2cccc(NC(=O)c3cncs3)c2)CCSC(N)=N1` (stereo not drawn) [Compound 791] has an IC50 of under 100 µM. Molecule `CC1(c2cccc(OCCCc3ccncc3)c2)CCSC(N)=N1` (stereo not drawn) [Compound 1221] has an IC50 of under 100 µM. In the case of `CC1(c2cccc(NC(=O)c3ccc(I)cc3)c2)CCSC(N)=N1` (stereo not drawn) [Compound 201], the IC50 is reported as under 100 µM. For `CC1(c2cccc(NCc3cccnc3)c2)CCSC(N)=N1` (stereo not drawn) [Compound 389], the IC50 was under 100 µM. Work on `CC1(c2cccc(NC(=O)c3cc([N+](=O)[O-])ccn3)c2)CCSC(N)=N1` (stereo not drawn) [Compound 770] yielded an IC50 of under 100 µM. `CC1(c2cccc(C(=O)Nc3nc4ccccc4s3)c2)CCSC(N)=N1` (stereo not drawn) [Compound 708] gave an IC50 of under 100 µM. In the case of `CC1(c2cccc(OC(F)(F)C(=O)Nc3ccccc3)c2)CCSC(N)=N1` (stereo not drawn) [Compound 1257], the IC50 is reported as under 100 µM. `CCCCCOc1ccc(NC(=O)COc2cccc(C3(C)CCSC(N)=N3)c2)cc1` (stereo not drawn) [Compound 211] gave an IC50 of under 100 µM. In the case of `CC1(c2cccc(CNC(=O)Nc3ccccc3)c2)CCSC(N)=N1` (stereo not drawn) [Compound 4], the IC50 is reported as under 100 µM. Work on `CC1(c2cccc(NC(=O)c3ccc4c(c3)OCO4)c2)CCSC(N)=N1` (stereo not drawn) [Compound 796] yielded an IC50 of under 100 µM. `CC1(c2cccc(OCC(=O)Nc3cccc(Oc4ccccc4)c3)c2)CCSC(N)=N1` (stereo not drawn) [Compound 1007] showed an IC50 of under 100 µM. Molecule `CC1(c2cccc(NC(=O)CCNC(=O)c3ccc(C(F)(F)F)cn3)c2)CCSC(N)=N1` (stereo not drawn) [Compound 1020] has an IC50 of under 100 µM. Work on `CC1(c2cccc(C(=O)Nc3nccs3)c2)CCSC(N)=N1` (stereo not drawn) [Compound 1256] yielded an IC50 of under 100 µM. `CC1(c2cccc(NC(=O)c3cnc(N4CCCC4)cn3)c2)CCSC(N)=N1` (stereo not drawn) [Compound 1271] was tested, and the IC50 was under 100 µM. Work on `CC1(c2cccc(CCC(=O)Nc3ccc(F)cc3)c2)CCSC(N)=N1` (stereo not drawn) [Compound 677] yielded an IC50 of under 100 µM. With `CC1(c2cccc(NC(=O)c3ccco3)c2)CCSC(N)=N1` (stereo not drawn) [Compound 335] the IC50 was under 100 µM. `CC1(c2cccc(NC(=O)c3ccc(-n4cccn4)cc3)c2)CCSC(N)=N1` (stereo not drawn) [Compound 321] gave an IC50 of under 100 µM. With `Cc1ccc(C(=O)Nc2cccc(C3(C)CCSC(N)=N3)c2)c(O)c1` (stereo not drawn) [Compound 569] the IC50 was under 100 µM. With `CC1(c2cccc(NCC3CCCCC3)c2)CCSC(N)=N1` (stereo not drawn) [Compound 120] the IC50 was under 100 µM. `CC1(c2cccc(NC(=O)c3cnccc3C(F)(F)F)c2)CCSC(N)=N1` (stereo not drawn) [Compound 1063] was tested, and the IC50 was under 100 µM. For `CC1(c2cc(NC(=O)c3cc4cc(OC(F)(F)F)ccc4[nH]3)ccc2F)CCSC(N)=N1` (stereo not drawn) [Compound 939], the IC50 was under 100 µM. Molecule `CN1CCOc2cc(C(=O)Nc3cccc(C4(C)CCSC(N)=N4)c3)ccc21` (stereo not drawn) [Compound 1004] has an IC50 of under 100 µM. For `CC1(c2cccc(NC(=O)c3ccc(C#N)nc3)c2)CCSC(N)=N1` (stereo not drawn) [Compound 819], the IC50 was under 100 µM. `CC1(c2cccc(OCC(=O)Nc3ccc4ccccc4n3)c2)CCSC(N)=N1` (stereo not drawn) [Compound 390] gave an IC50 of under 100 µM.

Same assay, conditions: recombinant human BACE-1 protein, 3 h at 30° C., pH5.0; read-out: IC50 value
Molecule `CC1(c2cc(Br)cc(NC(=O)c3cccs3)c2)CCSC(N)=N1` (stereo not drawn) [Compound 490] has an IC50 of 5.1 µM. `COCc1cc(NC(=O)c2ccc(C(F)(F)F)cc2)cc(C2(C)CCSC(N)=N2)c1` (stereo not drawn) [Compound 660] was tested, and the IC50 was 4.59 µM. Work on `CC1(c2cccc(NCc3ccc(Cl)cc3)c2)CCSC(N)=N1` (stereo not drawn) [Compound 753] yielded an IC50 of 5.6 µM. `CC1(c2cc(Cl)cc(NC(=O)c3cc4ccccc4s3)c2)CCSC(N)=N1` (stereo not drawn) [Compound 832] gave an IC50 of 0.222 µM. `Cc1ccc(NC(=O)COc2cccc(C3(C)CCSC(N)=N3)c2)cc1F` (stereo not drawn) [Compound 1000] showed an IC50 of 8 µM. Molecule `COCc1cc(NC(=O)c2ccc(Cl)cc2)cc(C2(C)CCSC(N)=N2)c1` (stereo not drawn) [Compound 395] has an IC50 of 1.5 µM. In the case of `CC1(c2cccc(OCC(=O)Nc3ccc(F)cc3)c2)CCSC(N)=N1` (stereo not drawn) [Compound 1186], the IC50 is reported as 5.7 µM.

Source: patent US8546380B2, “Aminodihydrothiazine derivatives” (Shionogi & Co., Ltd., priority 2005, dated 2013)
